Marks after values point to notes of the source that are not given here.

Data set [1] relates to mutant SOD1-overexpressing fish. The data set is described as follows: mutant SOD1-induced motor axonopathy in zebrafish embryos (percentage affected embryos, motor axon length). In kind it is in vivo. As to conditions: 30 hpf. The source says:
FIG. 1: EphA4 knockdown rescues mutant SOD1-induced motor axonopathy. […] Abnormal branching is indicated with arrowhead. Y-axes show motor axon length of zebrafish embryos expressing wild-type SOD1 (black bar, Panels D-G) or mutant SOD1 (white bar, Panels D-G). Knockdown of RTK2 in SOD1A4V- (Panel D), SOD1G93A- (Panel E) and SOD1G37R- (Panel F) expressing fish was established by co-injection of increasing amounts of atg-RTK2 morpholino (shaded bars). RTK1 expression was inhibited in SOD1A4V-expressing fish by co-injection of atg-RTK1 morpholino (shaded bars, Panel G). Ctr-RTK2 and ctr-RTK1 were used as control. ANOVA and Bonferroni's multiple comparison tests were used for statistical analysis. Comparing axonal length in SOD1A4V fish injected with ctr-RTK2 (n=39) vs. different doses atg-RTK2: 3 ng (n=43, p=0.0059), 4.5 ng (n=37, p=0.0016, Panel D), SOD1G93A: ctr-RTK2 (n=60) vs. atg-RTK2: 1.5 ng (n=55, p=0.015), 3 ng (n=51, p=2.82×10-9), 4.5 ng (n=46, p=2.22×10-15, Panel E), SOD1G37R: ctr-RTK2 (n=37) vs. atg-RTK2: 3 ng (n=25, p=0.027), 4.5 ng (n=36, p=0.0018, Panel F) and SOD1A4V: ctr-RTK1 (n=49) vs. atg-RTK1: 1.5 ng (n=51, p=2.51×10-7), 3 ng (n=64, p=7.99×10-10), 4.5 ng (n=54, p<1×10-20, Panel G). Western blot of SOD1WT or SOD1A4V (1.76 ng) expressing zebrafish embryos (30 hpf), co-injected with either ctr-RTK1 or atg-RTK1 (4.5 ng). Sixty embryos were used per group with actin as the loading control (H). Immunostaining of rtk1 (green) in rhombomeres 3 and 5 and of ephrin-b2 (magenta) in rhombomere 4 in zebrafish embryos injected with either ctr-RTK1 or atg-RTK1 (4.5 ng). RTK1-depleted embryos show disorganized rhombomere boundaries (arrowhead, I, Scale bar 50 μm). Error bars are s.e.m.
FIG. 2: RTK2 knockdown protects motor axons against SOD1^A4V-induced injury. Effect of RTK2 knockdown, established by injection of splice-rtk2 morpholino, on the motor axon length of SOD1^A4V-expressing zebrafish embryos (30 hpf). SOD1^WT-expressing fish and a non-functional five-base pair-mismatch control morpholino (ctr-RTK2) were used as control (Panel A). ANOVA and Bonferroni's multiple comparison tests were used for statistical analysis: SOD1^A4V/ctr-RTK2 (n=56) vs. SOD1^A4V/spl-RTK2 (n=60, 1.79×10^−4). Spl-RTK2 was designed against the exon 2 splice site of the zebrafish RTK2 pre-mRNA and alternatively skipped out exon 2. RT-PCR on non-transgenic fish (lane 1), ctr-RTK2-injected fish (lane 2) and spl-RTK2-injected fish (lane 3) at 30 hpf. Functional RTK2 mRNA, containing exon 2, is indicated by the 818-bp product (upper band) while non-functional RTK2 mRNA, lacking exon 2 is indicated by the 156-bp product (lower band), 60 embryos each group (Panel B). Error bars are s.e.m.
FIG. 12: Pharmacological inhibition of EphA4 receptor signaling protects against mutant SOD1 pathology in vivo. Effect of treatment with Compound 1 (C1, 500 μM) on the motor axon length of zebrafish embryos (30 hpf). DMSO (1/250 dilution) was used as control (Panel A). ANOVA and Bonferroni's multiple comparison tests were used for statistical analysis: SOD1^A4V/C1 (n=68) vs. SOD1^A4V/DMSO (n=76, p=3.54×10^−5). Effect of KYL-peptide (3 mM) treatment of 60-day-old SOD1^G93A rats on disease onset (Panel B) and survival (Panel C). Artificial CSF (ACSF) was used as control. Average disease onset: 133 days (treated, n=21) versus 125 days (control, n=17, T-test p=0.044). Average survival: 148 days (treated, n=21) versus 139 days (controls, n=17, T-test p=0.041). Error bars are s.e.m.
Effect of RTK2 knockdown (established by injection of atg-RTK2 morpholino) on the percentage of affected wild-type SOD1 or mutant SOD1 (A4V, G93A, G37R) zebrafish embryos (30 hpf). Ctr-RTK2 morpholino was used as control. An embryo was considered as affected when it had more than 10% abnormally branched motor axons. Significance of mtSOD1/ctr-RTK2 (4.5 ng) vs. mtSOD1/atg-RTK2 (4.5 ng) was determined by Mann-Whitney test, * p=0.0075, ° p=0.039 and # p=0.0052. […]

The subject of data set [2] is non-transgenic or wild-type SOD1-expressing fish. The data set is described as follows: axonal and total body length in non-transgenic or wild-type SOD1-expressing fish. In kind it is in vivo. The settings on record: zebrafish, average ± s.e.m. As for the experimental part:
Y-axes show motor axon length of non-transgenic (black bar) or SOD1WT-expressing (white bar) zebrafish embryos, injected with either atg-RTK2 (shaded bars, Panel A) or atg-RTK1 morpholino (shaded bars, Panel B). Ctr-RTK2 and ctr-RTK1 were used as controls. Error bars are s.e.m.
To identify disease-modifying genes in ALS in an unbiased way, knockdown screening was performed in the mutant SOD1 zebrafish model (reference 13), using a library of 303 translation blocking morpholinos (atg-mo), of which 58 were targeting genes presumed to be neuronally expressed (according to the NCBI database) and 245 randomly chosen targeting genes. […] The morpholino yielding the highest rescue in two separate experiments was studied further. It targets zebrafish receptor tyrosine kinase 2 (RTK2, also known as epha4b), which has 67% identity and 80% homology to the human orthologue EPHA4. Knockdown of RTK2 in fish expressing mutant SOD1 completely and dose-dependently rescued the motor axonopathy (both axonal length and aberrant branching) caused by three different SOD1 mutations: A4V, G93A and G37R (FIG. 1, Panels A-F; Table 2). […] Receptor tyrosine kinase 1 (RTK1, also known as epha4a), the fish paralogue of RTK2, has 83% identity and 92% homology to human EPHA4. RTK1 knockdown was dose-dependently and equally protective as RTK2 knockdown (FIG. 1, Panel G; Table 4). […]

The target in the next data set is EphA4 (Homo sapiens, UniProt P54764). As to conditions: Noberini et al.; cited from earlier work.
Chain of EphA4 (P54764 20-986, species assumed): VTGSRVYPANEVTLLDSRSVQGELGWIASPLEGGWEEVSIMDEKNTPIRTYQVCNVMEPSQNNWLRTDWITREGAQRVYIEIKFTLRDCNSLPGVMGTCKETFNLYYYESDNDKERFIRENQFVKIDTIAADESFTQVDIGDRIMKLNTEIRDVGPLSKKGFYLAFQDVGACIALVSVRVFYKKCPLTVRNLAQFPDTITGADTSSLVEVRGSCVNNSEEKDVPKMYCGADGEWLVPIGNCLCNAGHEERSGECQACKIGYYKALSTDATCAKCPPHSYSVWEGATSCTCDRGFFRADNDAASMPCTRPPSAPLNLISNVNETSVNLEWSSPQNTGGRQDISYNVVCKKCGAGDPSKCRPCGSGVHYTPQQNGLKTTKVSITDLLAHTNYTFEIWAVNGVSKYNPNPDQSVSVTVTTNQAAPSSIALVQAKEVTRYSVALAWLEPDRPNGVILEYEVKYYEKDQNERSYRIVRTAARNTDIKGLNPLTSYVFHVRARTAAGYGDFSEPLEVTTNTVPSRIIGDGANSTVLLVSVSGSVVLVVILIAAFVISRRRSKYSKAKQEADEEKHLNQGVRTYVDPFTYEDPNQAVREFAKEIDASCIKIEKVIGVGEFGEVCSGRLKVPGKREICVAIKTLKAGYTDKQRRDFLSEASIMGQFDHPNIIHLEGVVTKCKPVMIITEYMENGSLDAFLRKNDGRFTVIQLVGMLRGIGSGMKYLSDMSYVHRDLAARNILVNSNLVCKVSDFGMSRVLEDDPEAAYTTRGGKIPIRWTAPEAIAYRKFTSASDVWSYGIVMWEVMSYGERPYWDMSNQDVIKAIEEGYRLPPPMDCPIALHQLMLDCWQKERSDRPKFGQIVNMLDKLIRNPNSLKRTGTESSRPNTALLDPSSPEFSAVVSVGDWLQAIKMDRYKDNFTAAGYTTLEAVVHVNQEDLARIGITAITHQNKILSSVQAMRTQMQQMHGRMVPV

With “5′-AATCCAAAGGGTAGCCA-TTTTCAGG-′3 (antisense AATCCAAAGGGTAGCCATTTTCAGG; morpholino, chemistry not fully specified) [atg-RTK2]”, the “% affected embryos (more than 10% abnormally branched motor axons)” value in data set [1] (mtSOD1 A4V zebrafish embryos, morpholino 1.5 ng) was 29 (41) %; in data set [1] (mtSOD1 A4V zebrafish embryos, morpholino 3.0 ng), 18 (44) %; in data set [1] (mtSOD1 A4V zebrafish embryos, morpholino 4.5 ng), 8* %; in data set [1] (mtSOD1 G37R zebrafish embryos, morpholino 1.5 ng), 34 (26) %; in data set [1] (mtSOD1 G37R zebrafish embryos, morpholino 3.0 ng) it was 8 (25) %; in data set [1] (mtSOD1 G37R zebrafish embryos, morpholino 4.5 ng), 16# %. Also, the “% affected embryos (more than 10% abnormally branched motor axons)” value in data set [1] (mtSOD1 G93A zebrafish embryos, morpholino 1.5 ng) is reported as 55 (47) %; in data set [1] (mtSOD1 G93A zebrafish embryos, morpholino 3.0 ng) it was 50 (54) %; in data set [1] (mtSOD1 G93A zebrafish embryos, morpholino 4.5 ng), 23° %; in data set [1] (wtSOD1 zebrafish embryos, morpholino 4.5 ng), 12%. The same compound displayed a body length in data set [2] of 2.70±0.01 mm.
`Cc1ccc(C)n1-c1ccc(O)c(C(=O)O)c1` [compound 2]: the “inhibition of ephrin binding to EphA4” value at EphA4 is listed as “selectively inhibit ephrin binding to EphA4”.

(Values after US9187784B2, “EphA4 is a disease modifier in motor neuron disease” (VIB VZW, priority 2011, dated 2015).)
